These are literature values, as cited in patent publication US12551462B2, “Anti-aging composition with rutin, apigenin, epigallocatechin gallate, lipoic acid and the NAD precursor, niacinamide” (NUCHIDO LIMITED, priority 2018, dated 2026).

The series concerns NAD concentration. The following applies: Trammell et al. 2016.

Regarding `NC(=O)c1ccc[n+]([C@@H]2O[C@H](CO)[C@@H](O)[C@H]2O)c1` [Niagen, nicotinamide riboside], the “Enhancement of NAD (as % baseline)” value was 270%.
